pIC50: −log10 of the molar value.

The test deals with T1, Interleukin-1 receptor-associated kinase 4 (Homo sapiens, UniProt Q9NWZ3).
T1 sequence (Q9NWZ3 whole entry): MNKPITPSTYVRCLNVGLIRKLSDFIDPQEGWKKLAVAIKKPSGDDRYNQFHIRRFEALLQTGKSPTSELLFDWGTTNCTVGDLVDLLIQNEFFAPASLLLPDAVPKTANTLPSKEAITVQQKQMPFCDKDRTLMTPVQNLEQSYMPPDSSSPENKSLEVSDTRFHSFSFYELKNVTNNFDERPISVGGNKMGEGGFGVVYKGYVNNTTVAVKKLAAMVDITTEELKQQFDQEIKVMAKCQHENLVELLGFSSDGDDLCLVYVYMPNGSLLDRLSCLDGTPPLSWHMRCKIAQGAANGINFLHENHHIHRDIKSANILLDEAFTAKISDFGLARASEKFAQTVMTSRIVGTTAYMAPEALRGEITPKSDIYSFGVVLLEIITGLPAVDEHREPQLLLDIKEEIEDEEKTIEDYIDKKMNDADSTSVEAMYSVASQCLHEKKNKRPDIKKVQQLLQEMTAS
The test can be described thus: Inhibition of recombinant human full-length His-tagged IRAK4 expressed in baculovirus infected insect cells using KKARFSRFAGSSPSQSSMVAR as substrate preincubated for 15 mins followed by substrate addition and measured after 2 hrs by LC-MS/MS analysis.
As usually defined, the pIC50 is the negative decadic logarithm of the IC50, by convention in mol/L. For `COc1cc2nn([C@H]3CC[C@H](N(C)C(=O)[C@@H](C)O)CC3)cc2cc1C(=O)Nc1cnc2cccnn12`, the pIC50 is 9.70.

Consider `COc1cc2nn([C@H]3CC[C@@]4(CC3)CC(=O)N(C)C4)cc2cc1C(=O)Nc1cnc2cccnn12`, for which the pIC50 is 9.70.

Consider `CO[C@H]1C[C@H](Oc2cc3nn(C4CCC5(CC4)CN(C(C)=O)C5)cc3cc2C(=O)Nc2cnc3cccnn23)C1`, for which the pIC50 is greater than 10.52.
